In EP0369035A1, “AGENT FOR TREATING PANCREATITIS OR THE LIKE” (priority 1988, dated 1989):
Read-outs that look alike come from different tables or passages of the source.

Tests used:
human plasmin [1] = target: T1, human plasmin (Homo sapiens, UniProt P00747); assay: Anti-plasmin activity: inhibition of S-2251 degradation; format: biochemical
T1 construct: 50 µl of 0.2 casein units/ml of human plasmin
Protocol: ii) Assay method of inhibition of S-2251 degradation
The test substance was dissolved in a 0.05 M Tris-HC1 (pH7.4) buffer to make a total volume of 400 µl, and 50 µl of a 3 mM S-2251 solution was added to the solution. The mixture was incubated at 37°C for 5 minutes in an incubator, and after the addition of 50 µl of 0.2 casein units/ml of human plasmin, and incubation at 37°C for 4 minutes, the reaction was terminated by an addition of 50 µl of 50% acetic acid.

human plasmin [2] = target: T1, human plasmin; assay: Anti-plasmin activity: inhibition of fibrinolysis (fibrin clot lysis time); format: biochemical
human plasma kallikrein = target: T2, human plasma kallikrein (Homo sapiens, UniProt P03952); assay: Anti-plasma kallikrein activity: inhibition of S-2302 degradation; format: biochemical
T2 construct: 50 µl of 0.12 units/ml human plasma kallikrein solution
T2 sequence (P03952 391-638 limits assumed): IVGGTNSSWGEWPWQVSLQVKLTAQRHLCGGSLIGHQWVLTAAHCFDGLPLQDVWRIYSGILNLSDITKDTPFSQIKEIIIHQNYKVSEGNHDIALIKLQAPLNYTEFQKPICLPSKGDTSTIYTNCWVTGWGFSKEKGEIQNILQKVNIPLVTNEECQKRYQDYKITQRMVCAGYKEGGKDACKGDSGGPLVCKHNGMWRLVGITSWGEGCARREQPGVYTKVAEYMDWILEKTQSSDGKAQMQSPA
T2 sequence (P03952 20-390 partner limits assumed): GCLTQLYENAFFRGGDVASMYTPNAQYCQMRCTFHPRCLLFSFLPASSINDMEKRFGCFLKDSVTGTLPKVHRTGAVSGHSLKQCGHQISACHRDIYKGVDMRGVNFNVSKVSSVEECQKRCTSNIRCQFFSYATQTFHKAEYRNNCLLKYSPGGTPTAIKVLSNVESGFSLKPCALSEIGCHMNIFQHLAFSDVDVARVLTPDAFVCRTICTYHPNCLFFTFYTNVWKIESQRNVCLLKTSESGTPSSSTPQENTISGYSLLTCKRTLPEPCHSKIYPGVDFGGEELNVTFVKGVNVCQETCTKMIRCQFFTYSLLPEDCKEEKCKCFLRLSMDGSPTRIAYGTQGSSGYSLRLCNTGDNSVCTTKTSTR
Protocol: 2) Assay of anti-plasma kallikrein activity Assay method of inhibition of S-2302 degradation
The test substance was dissolved in a 0.05 M Tris-HC1 (pH 7.8) buffer to make a total volume of 400 µl, and 50 µl of a 2 mM S-2302 solution was added to the solution. After incubation at 37°C for 5 minutes in an incubator, an addition of 50 µl of 0.12 units/ml human plasma kallikrein solution, and incubation at 37°C for 5 minutes, the reaction was terminated by an addition of 50 µl of 50% acetic acid.

human urokinase = human urokinase (Homo sapiens, UniProt P00749); assay: Anti-urokinase activity: inhibition of S-2444 degradation; format: biochemical; details: substrate S-2444, 37°C, pH 8.8; read-out: Urokinase S-2444 (I50)
Protocol: 3) Assay of anti-urokinase activity Assay method of inhibition of S-2444 degradation
The test substance was dissolved in a 0.05 M Tris-HC1 (pH 8.8) buffer to make a total volume of 400 µl, and 50 µl of a 1 mM S-2444 solution was added to the mixture. After incubation at 37°C for 5 minutes in an incubator, an addition of 50 µl of 500 units/ml human urokinase solution, and incubation at 37°C for 5 minutes, the reaction was terminated by an addition of 50 µl of 50% acetic acid.

[3] = tested on: experimental pancreatitis; assay: Effect on experimental pancreatitis (sodium taurochorate + trypsin into the common bile duct), survival ratio; format: in vivo, SD-rats; parameters: Effect on experimental pancreatitis (100 mg/kg p.o.) After 24 hours / Effect on experimental pancreatitis (100 mg/kg p.o.) After 48 hours / Effect of existing control drug on experimental pancreatitis After 24 hours: unit not given here; details: rat; for Effect on experimental pancreatitis Survival ratio(%) After 24 hours / Effect on experimental pancreatitis Survival ratio(%) After 48 hours: 80 μg/kg/min. x 80 min. continuous infusion; for Effect on experimental pancreatitis (100 mg/kg p.o.) After 24 hours / Effect on experimental pancreatitis (100 mg/kg p.o.) After 48 hours / Effect of existing control drug on experimental pancreatitis After 24 hours: survival ratio; for Effect on experimental pancreatitis (100 mg/kg p.o.) After 24 hours / Effect on experimental pancreatitis (100 mg/kg p.o.) After 48 hours: 100 mg/kg p.o. 30 minutes before pancreatitis
Text: [II] Effect on experimental pancreatitis
SD-rats, body weight of about 200 g were, starved overnight, and 10 to 24 animals were used in one group. Sodium pentobarbital was intraperioneally administered to anesthetize each rat, and then a cannula was inserted to the femoral vein for the administration of the test substance. After abdominal surgery, the bile duct was blocked at a part thereof proximate to the liver, by a clip, a polyethylene tube was inserted to the common bile duct at a part thereof most proximate to the duodenum, and 0.1 ml of solution containing 2 mg sodium taurochorate and 1000 U trypsin dissolved in physiological saline was injected retrogrodely. After removal of the clip and tube, the common bile duct was ligated and the abdomen was closed. Note, the test substance was dissolved in an injective 5% glucose solution, and in the case of a continuous infusion, the solution was administered over 80 minutes starting from 10 minutes before the generation of pancreatitis. In the case of oral administration, the test substance was administered through an oral catheter 30 minutes before the generation of pancreatitis. After 24 hours and 48 hours from the generation of pancreatitis, the survival ratio of the animals was calculated and compared with a control group.

experimental DIC = assay: Effect on experimental DIC and MOF (endotoxin-induced); format: in vivo, SD-rats; details: Dose 10 μg/kg/min infusion, rat, 4 hours after endotoxin 10 mg/kg
Protocol: [III] Effect on experimental DIC
SD-rats, body weight of about 200 g, were starved overnight. Sodium pentobarbital was intraperioneally administered to anesthetize a rat, and then a cannula was inserted to the femoral vein, and the test substance dissolved in an injective 5% glucose solution was continually infused. Then, 10 minutes from the start of the injection, endotoxin (E. coli 0127:B8, Difco, U.S.) dissolved in physiological saline was injected through the tail vein to an amount of 10 mg/kg body weight, and 4 hours from the administration of endotoxin, the abdomen was opened, blood was obtained from the abdominal aorta, and platelets (Plt), fibrinogen (Fbg), fibrin degradation product (FDP), glutamic oxaloacetic transamirase (GOT), creatinine phosphokinase (CPK), and blood urin nitrogen (BUN) were measured.

experimental shock = assay: Effect on experimental shock (endotoxin-induced), survival ratio; format: in vivo, ICR-mice; details: dose of 30 mg/kg intraperitoneally 15 minutes before endotoxin 40 mg/kg, mouse
Protocol: [IV] Effect on experimental shock
ICR-mice, body weight of about 25 g, were starved overnight. The test substance was dissolved in an injective 5% glucose solution and intraperioneally administered, and 15 minutes later, endotoxin (E. coli 0127:B8, Difco, U.S.) dissolved in a physiological saline was intraperioneally administered to an amount of 40 mg/kg body weight.

in vivo = details: mouse, intravenous, ICR male mice, up-and-down method, read-out: Acute toxicity (LD50)
Protocol: ICR male mice 5 to 10 weeks old were used. The test substance was dissolved in a 5% dimethylsulfoxide aqueous solution, and the solution was intravenously administered in an amount of 0.1 to 0.2 ml/10 g body weight. An LD50 value was calculated by up-and-down method.

[4] = Measurement of half life in blood; format: in vivo; details: rat, iv, administered to the tail vein, SD-rats, plasma, HPLC
Protocol: [VI] Measurement of half life in blood
SD-rats 6 to 7 weeks old were used. The test substance was dissolved in an injective 5% glucose solution and administered to the tail vein. After the administration, blood samples were periodically obtained from the great vein and placed into heparinized test tubes. Plasma was separated by centrifugation and the test substance was extracted with ethyl acetate. After removal of the solvent, the residue was dissolved in 200 µl of methanol, and analyzed by high performance liquid chromatography. From the change of the concentration of the test substance in blood with time, a half life thereof in blood was calculated.

bovine factor Xa = target: T3, bovine factor Xa (Bos taurus, UniProt P00743); assay: Anti-FXa activity: inhibition of S-2222 degradation; format: biochemical
T3 construct: 0.05 ml of 0.3 vial/ml bovine factor Xa
T3 sequence (P00743 234-492 limits assumed): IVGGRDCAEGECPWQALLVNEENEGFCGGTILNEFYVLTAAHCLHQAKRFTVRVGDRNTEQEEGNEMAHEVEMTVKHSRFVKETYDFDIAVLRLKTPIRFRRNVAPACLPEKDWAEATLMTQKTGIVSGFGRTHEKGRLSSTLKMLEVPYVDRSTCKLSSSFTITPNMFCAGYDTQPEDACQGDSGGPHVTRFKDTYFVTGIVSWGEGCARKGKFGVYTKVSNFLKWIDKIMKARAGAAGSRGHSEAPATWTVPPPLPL
T3 sequence (P00743 41-180 partner limits assumed): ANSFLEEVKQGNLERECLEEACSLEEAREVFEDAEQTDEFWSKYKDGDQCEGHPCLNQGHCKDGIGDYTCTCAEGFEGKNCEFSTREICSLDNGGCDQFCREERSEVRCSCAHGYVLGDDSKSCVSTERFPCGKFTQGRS
Protocol: 4) Assay of anti-FXa activity Assay method of inhibition of S-2222 degradation
To 0.4 ml of the test substance dissolved in a 0.05 M Tris-HC1 (pH 8.3) buffer is added 0.05 ml of 3 mM S-2222 solution, and after incubation at 37°C for about 4 minutes, an addition of 0.05 ml of 0.3 vial/ml bovine factor Xa, and a reaction at 37°C for 4 minutes, the - reaction was terminated by adding 0.05 ml of 50% acetic acid.

[5] = substrate S-2251, 37°C, pH7.4, read-out: Plasmin S-2251 (I50)
[6] = concentration giving a fibrin clot lysis time twice that of control, 37°C, pH7.4, read-out: Plasmin Fibrin (I50)
[7] = substrate S-2302, 37°C, pH 7.8, read-out: Plasma kallikrein S-2302 (I50)
[8] = substrate S-2222, 37°C, pH 8.3, read-out: FXa S-2222 (I50)

T1 sequence (P00747 581-810 limits assumed): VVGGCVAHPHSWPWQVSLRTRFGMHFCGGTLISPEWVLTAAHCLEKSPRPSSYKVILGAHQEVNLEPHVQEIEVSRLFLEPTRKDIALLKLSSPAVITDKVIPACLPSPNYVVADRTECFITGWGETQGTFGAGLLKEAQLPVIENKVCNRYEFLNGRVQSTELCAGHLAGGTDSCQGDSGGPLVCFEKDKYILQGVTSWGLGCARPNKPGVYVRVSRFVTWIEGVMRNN
T1 sequence (P00747 97-580 partner limits assumed): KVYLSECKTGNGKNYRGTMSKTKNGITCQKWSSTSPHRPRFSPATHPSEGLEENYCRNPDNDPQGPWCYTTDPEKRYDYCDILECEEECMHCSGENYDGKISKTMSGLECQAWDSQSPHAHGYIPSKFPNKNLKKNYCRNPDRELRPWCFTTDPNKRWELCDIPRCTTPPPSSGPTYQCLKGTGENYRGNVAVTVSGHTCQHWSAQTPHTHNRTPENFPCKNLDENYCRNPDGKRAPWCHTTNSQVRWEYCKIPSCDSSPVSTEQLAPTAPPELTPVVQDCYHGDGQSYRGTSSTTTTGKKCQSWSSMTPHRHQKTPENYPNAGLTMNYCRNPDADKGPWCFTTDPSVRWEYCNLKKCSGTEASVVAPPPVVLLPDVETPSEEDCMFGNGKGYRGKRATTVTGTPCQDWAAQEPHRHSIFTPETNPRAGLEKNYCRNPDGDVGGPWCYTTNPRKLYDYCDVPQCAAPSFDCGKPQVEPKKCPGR

SMILES	IC50 (human plasmin [1]; [5]) [µM]	IC50 (human plasmin [2]; [6]) [µM]	IC50 (human plasma kallikrein; [7]) [µM]	IC50 (human urokinase) [µM]	Effect on experimental pancreatitis Survival ratio(%) After 24 hours [3] [%]	Effect on experimental pancreatitis Survival ratio(%) After 48 hours [3] [%]	Effect on experimental shock (Survival ratio (%) after 24 hours) (experimental shock) [%]	LD50 (in vivo) [mg/kg]	half-life [4] [min]	IC50 (bovine factor Xa; [8]) [µM]	also measured
NC[C@H]1CC[C@H](C(=O)N[C@@H](Cc2ccc(OCc3ccccc3)cc2)C(=O)Nc2cccnc2)CC1 [Compound 1]	6.1	2.9	1.7	45	55.5	29.1	82	70	15.3	–	BUN (experimental DIC): 28 ± 3 mg/dL; FDP (experimental DIC): 16 to 32 µg/mL; Fbg (experimental DIC): 146 ± 7 mg/dL; GOT (experimental DIC): 299 ± 63 U/ml; Plat (experimental DIC): 65 ± 6 x 10^4/μl
CC(=O)c1ccc(NC(=O)[C@H](Cc2ccccc2)NC(=O)[C@H]2CC[C@H](CN)CC2)cc1 [Compound 2]	36	21	0.85	58	–	–	50	50	–	540	–
CC(=O)c1ccc(NC(=O)[C@H](Cc2ccc(OCc3cccc(Cl)c3)cc2)NC(=O)[C@H]2CC[C@H](CN)CC2)cc1 [Compound 3]	0.8	0.1	0.38	40	–	–	67	> 100	–	35	BUN (experimental DIC): 40 ± 5 mg/dL; FDP (experimental DIC): 8 to 64 µg/mL; Fbg (experimental DIC): 160 ± 13 mg/dL; GOT (experimental DIC): 133 ± 4 U/ml; Plat (experimental DIC): 78 ± 7 x 10^4/μl; CPK (experimental DIC; Table 5-1): 14 ± 2 U/1
NC[C@H]1CC[C@H](C(=O)N[C@@H](Cc2ccc(OCc3ccccc3)cc2)C(=O)Nc2ccncc2)CC1 [Compound 4]	3.4	0.7	1.2	32	–	–	82	85	–	90	–
NC[C@H]1CC[C@H](C(=O)N[C@@H](Cc2ccc(OCc3ccccc3)cc2)C(=O)Nc2ccc(CC(=O)O)cc2)CC1 [Compound 8]	25	9.2	3	260	58.3	58.3	–	> 100	10.6	290	Effect on experimental pancreatitis (100 mg/kg p.o.) After 24 hours [3]: 58.3; Effect on experimental pancreatitis (100 mg/kg p.o.) After 48 hours [3]: 33.3
NCC1CCC(C(=O)NC(Cc2ccc(OCc3ccccn3)cc2)C(=O)Nc2ccc(C(=O)O)cc2)CC1 (centres unmarked) [Compound 20]	65	32	1.4	–	58.3	41.7	–	> 100	14	700	Effect on experimental pancreatitis (100 mg/kg p.o.) After 24 hours [3]: 58.3; Effect on experimental pancreatitis (100 mg/kg p.o.) After 48 hours [3]: 41.7
CCOC(=O)c1ccc(OC(=O)CCCCCNC(=N)N)cc1 [FOY, gabexate mesilate, reference compound]	–	–	–	1.3	–	–	–	248	–	–	IC50 (human plasmin [1]): 3.4 µM; IC50 (human plasmin [2]): 3 µM; IC50 (human plasma kallikrein): 1.3 µM; IC50 (bovine factor Xa): 43 µM; Effect of existing control drug on experimental pancreatitis After 24 hours ([3]; 250 μg/kg/min x 80 min): 16.6; Effect of existing control drug on experimental pancreatitis After 24 hours ([3]; 1000 μg/kg/min x 80 min): 42.0; half-life ([4]; in vivo): 0.4 min
